Legend:
MDA-MB-231/ATCC = assay: NCI 60-cell line growth inhibition assay; type: cell-based; settings: Homo sapiens; MDA-MB-231/ATCC (Breast)
MDA-N = assay: NCI 60-cell line growth inhibition assay; type: cell-based; settings: Homo sapiens; MDA-N (Breast)
NCI/ADR-RES = assay: NCI 60-cell line growth inhibition assay; type: cell-based; settings: Homo sapiens; NCI/ADR-RES (Breast)
T-47D = assay: NCI 60-cell line growth inhibition assay; type: cell-based; settings: Homo sapiens, T47D; T-47D (Breast)
SNB-19 = assay: NCI 60-cell line growth inhibition assay; type: cell-based; settings: Homo sapiens; SNB-19 (CNS)
SNB-75 = assay: NCI 60-cell line growth inhibition assay; type: cell-based; settings: Homo sapiens; SNB-75 (CNS)
COLO 205 = assay: NCI 60-cell line growth inhibition assay; type: cell-based; settings: Homo sapiens; COLO 205 (Colon)
HCC-2998 = assay: NCI 60-cell line growth inhibition assay; type: cell-based; settings: Homo sapiens; HCC-2998 (Colon)
HCT-116 = assay: NCI 60-cell line growth inhibition assay; type: cell-based; settings: Homo sapiens; HCT-116 (Colon)
HT29 = assay: NCI 60-cell line growth inhibition assay; type: cell-based; settings: Homo sapiens, HT-29; HT29 (Colon)
KM12 = assay: NCI 60-cell line growth inhibition assay; type: cell-based; settings: Homo sapiens; KM12 (Colon)
HL-60(TB) = assay: NCI 60-cell line growth inhibition assay; type: cell-based; settings: Homo sapiens; HL-60(TB) (Leukemia)
RPMI-8226 = assay: NCI 60-cell line growth inhibition assay; type: cell-based; settings: Homo sapiens; RPMI-8226 (Leukemia)
MALME-3M = assay: NCI 60-cell line growth inhibition assay; type: cell-based; settings: Homo sapiens; MALME-3M (Melanoma)
SK-MEL-2 = assay: NCI 60-cell line growth inhibition assay; type: cell-based; settings: Homo sapiens; SK-MEL-2 (Melanoma)
SK-MEL-28 = assay: NCI 60-cell line growth inhibition assay; type: cell-based; settings: Homo sapiens; SK-MEL-28 (Melanoma)
SK-MEL-5 = assay: NCI 60-cell line growth inhibition assay; type: cell-based; settings: Homo sapiens; SK-MEL-5 (Melanoma)
UACC-257 = assay: NCI 60-cell line growth inhibition assay; type: cell-based; settings: Homo sapiens; UACC-257 (Melanoma)
A549/ATCC = assay: NCI 60-cell line growth inhibition assay; type: cell-based; settings: Homo sapiens; A549/ATCC (Non-Small Cell Lung)
HOP-62 = assay: NCI 60-cell line growth inhibition assay; type: cell-based; settings: Homo sapiens; HOP-62 (Non-Small Cell Lung)
NCI-H226 = assay: NCI 60-cell line growth inhibition assay; type: cell-based; settings: Homo sapiens; NCI-H226 (Non-Small Cell Lung)
NCI-H23 = assay: NCI 60-cell line growth inhibition assay; type: cell-based; settings: Homo sapiens; NCI-H23 (Non-Small Cell Lung)
NCI-H460 = assay: NCI 60-cell line growth inhibition assay; type: cell-based; settings: Homo sapiens; NCI-H460 (Non-Small Cell Lung)
NCI-H522 = assay: NCI 60-cell line growth inhibition assay; type: cell-based; settings: Homo sapiens; NCI-H522 (Non-Small Cell Lung)
OVCAR-3 = assay: NCI 60-cell line growth inhibition assay; type: cell-based; settings: Homo sapiens; OVCAR-3 (Ovarian)
OVCAR-4 = assay: NCI 60-cell line growth inhibition assay; type: cell-based; settings: Homo sapiens; OVCAR-4 (Ovarian)
OVCAR-5 = assay: NCI 60-cell line growth inhibition assay; type: cell-based; settings: Homo sapiens; OVCAR-5 (Ovarian)
SK-OV-3 = assay: NCI 60-cell line growth inhibition assay; type: cell-based; settings: Homo sapiens; SK-OV-3 (Ovarian)
786-0 = assay: NCI 60-cell line growth inhibition assay; type: cell-based; settings: Homo sapiens; 786-0 (Renal)
A498 = assay: NCI 60-cell line growth inhibition assay; type: cell-based; settings: Homo sapiens; A498 (Renal)
CAKI-1 = assay: NCI 60-cell line growth inhibition assay; type: cell-based; settings: Homo sapiens; CAKI-1 (Renal)
RXF 393 = assay: NCI 60-cell line growth inhibition assay; type: cell-based; settings: Homo sapiens; RXF 393 (Renal)
SN12C = assay: NCI 60-cell line growth inhibition assay; type: cell-based; settings: Homo sapiens; SN12C (Renal)
TK-10 = assay: NCI 60-cell line growth inhibition assay; type: cell-based; settings: Homo sapiens; TK-10 (Renal)
[1] = test system: Tumor Cells in Hollow Fibers; assay: NCI Hollow Fiber Assay (in vivo evaluation); settings: for IP Score: IP fibers; for SC score: SC fibers
HS 578T = assay: NCI 60-cell line growth inhibition assay; type: cell-based; settings: Homo sapiens; HS 578T (Breast)
SF-268 = assay: NCI 60-cell line growth inhibition assay; type: cell-based; settings: Homo sapiens; SF-268 (CNS)
SF-539 = assay: NCI 60-cell line growth inhibition assay; type: cell-based; settings: Homo sapiens; SF-539 (CNS)
CCRF-CEM = assay: NCI 60-cell line growth inhibition assay; type: cell-based; settings: Homo sapiens; CCRF-CEM (Leukemia)
SR = assay: NCI 60-cell line growth inhibition assay; type: cell-based; settings: Homo sapiens; SR (Leukemia)

Row | Structure (SMILES) | GI50 (MDA-MB-231/ATCC) | GI50 (NCI/ADR-RES) | GI50 (T-47D) | GI50 (SNB-19) | GI50 (COLO 205) | GI50 (HCT-116) | GI50 (HT29) | GI50 (KM12) | GI50 (MALME-3M) | GI50 (SK-MEL-2) | GI50 (SK-MEL-28) | GI50 (SK-MEL-5) | GI50 (A549/ATCC) | GI50 (HOP-62) | GI50 (NCI-H23) | GI50 (NCI-H460) | GI50 (OVCAR-3) | GI50 (OVCAR-4) | GI50 (OVCAR-5) | GI50 (SK-OV-3) | further results
1 | CC(C)n1cnc2c(NCc3ccc(-c4ccccn4)cc3)nc(N[C@H]3CC[C@H](N)CC3)nc21 [Compound 78] | < 10 nM | 14400 nM | 30 nM | < 10 nM | < 10 nM | 30 nM | < 10 nM | < 10 nM | 10 nM | 20 nM | 10 nM | 100 nM | < 10 nM | 20 nM | 10 nM | 50 nM | 30 nM | 20 nM | < 10 nM | 60 nM | GI50 (MDA-N): < 10 nM; GI50 (SNB-75): < 10 nM; GI50 (HCC-2998): < 10 nM; GI50 (HL-60(TB)): < 10 nM; GI50 (RPMI-8226): < 10 nM; GI50 (UACC-257): 20 nM; GI50 (NCI-H226): 20 nM; GI50 (NCI-H522): < 10 nM; GI50 (786-0): 40 nM; GI50 (A498): 30 nM; GI50 (CAKI-1): 790 nM; GI50 (RXF 393): < 10 nM; GI50 (SN12C): < 10 nM; GI50 (TK-10): 70 nM; Cell Types Killed [1]: OVCAR 3, SF29; IP Score [1]: 34; SC score [1]: 0
2 | CC[C@H](CO)Nc1nc(NCc2ccc(-c3cccc([N+](=O)[O-])c3)cc2)c2ncn(C(C)C)c2n1 [Compound 48] | 90 nM | 120 nM | 150 nM | 20 nM | 30 nM | 190 nM | < 10 nM | 20 nM | 130 nM | 480 nM | < 10 nM | 170 nM | < 10 nM | 30 nM | 70 nM | 250 nM | 170 nM | 200 nM | 160 nM | 1380 nM | GI50 (HS 578T): 30 nM; GI50 (MDA-N): 20 nM; GI50 (SF-268): < 10 nM; GI50 (SF-539): 380 nM; GI50 (SNB-75): < 10 nM; GI50 (CCRF-CEM): 30 nM; GI50 (RPMI-8226): < 10 nM; GI50 (SR): 160 nM; GI50 (UACC-257): 40 nM; GI50 (NCI-H522): < 10 nM; GI50 (786-0): 250 nM; GI50 (A498): 390 nM; GI50 (RXF 393): < 10 nM; GI50 (SN12C): 30 nM; GI50 (TK-10): 370 nM
3 | CC[C@H](CO)Nc1nc(NCc2ccc(-c3ccc(OC)cc3)cc2)c2ncn(C(C)C)c2n1 [Compound 43] | 3200 nM | 5200 nM | 2200 nM | 5000 nM | 1600 nM | 2100 nM | 3600 nM | 2300 nM | 3000 nM | 61700 nM | 2300 nM | 2100 nM | 4100 nM | 3300 nM | 4300 nM | 3200 nM | 9300 nM | 8900 nM | 3600 nM | 72400 nM | GI50 (SF-268): 3000 nM; GI50 (SF-539): 3400 nM; GI50 (HCC-2998): 3400 nM; GI50 (CCRF-CEM): 2800 nM; GI50 (HL-60(TB)): 2100 nM; GI50 (SR): 2200 nM; GI50 (UACC-257): 4800 nM; GI50 (786-0): 3100 nM; GI50 (A498): 3000 nM; GI50 (CAKI-1): 3000 nM; GI50 (RXF 393): 1900 nM; GI50 (TK-10): 3200 nM
4 | CC(=O)N[C@H]1CC[C@H](Nc2nc(NCc3ccc(-c4ccccc4)nc3)c3ncn(C(C)C)c3n2)CC1 [Compound 87] | < 10 nM | 280 nM | 48 nM | 38 nM | < 10 nM | 37 nM | < 10 nM | < 10 nM | 24 nM | 56 nM | < 10 nM | 28 nM | < 10 nM | 10 nM | 22 nM | 220 nM | 50 nM | 48 nM | 51 nM | 350 nM | GI50 (HS 578T): < 10 nM; GI50 (SF-268): < 10 nM; GI50 (SF-539): 81 nM; GI50 (SNB-75): 12 nM; GI50 (HCC-2998): < 10 nM; GI50 (CCRF-CEM): < 10 nM; GI50 (HL-60(TB)): < 10 nM; GI50 (RPMI-8226): < 10 nM; GI50 (SR): 32 nM; GI50 (NCI-H522): < 10 nM; GI50 (786-0): 47 nM; GI50 (A498): 100 nM; GI50 (CAKI-1): 64 nM; GI50 (RXF 393): 11 nM; GI50 (SN12C): < 10 nM; GI50 (TK-10): 29 nM; IP Score [1]: 30; SC score [1]: 2
